Tests used:
[1] = Absorption and fluorescence; type: physicochemical
[2] = Fluorescence lifetime measurements; type: physicochemical; conditions: free and peptide incorporated forms
[3] = typical range; depends on solvent exposure and quenching; cited from earlier work
[4] = Fluorescence spectra of NAAzAP in different solvents; type: physicochemical; conditions: upon lowering solvent polarity, λex 342 nm
[5] = Collisional quenching experiments on NAAzAP with free amino acids and imidazole; type: physicochemical
CaM = conditions: cited from earlier work

**Q.** What does the source list for `N[C@@H](Cc1ccc2cccccc1-2)C(=O)O` [AzAla, β-(1-Azulenyl)-L-Alanine]?
**A.** extinction coefficient ([1]; S2-S0 transition): ~ 4200 cm^−1M^−1; quantum yield ([1]; relative to tryptophan): comparable to those of tryptophan; apparent emission intensity ([1]; relative to tryptophan, narrower profile of the azulene emission): nearly the same apparent emission intensity; fluorescence decay [2]: simple monoexponential fluorescence decay

**Q.** Which “apparent Trp quantum yield (Φ)” value [3] does the source give for `N[C@@H](Cc1c[nH]c2ccccc12)C(=O)O` [Tryptophan] here?
**A.** Its value is 0.35 to 0.01.

**Q.** With `CCCNC(=O)C(Cc1ccc2cccccc1-2)NC(C)=O` (centres unmarked) [NAAzAP, N-Acetyl-(AzulylAlanine)-propylamide] as the molecule, how does the “red shift of fluorescence spectra” value [4] read?
**A.** Its value is 6 nm.

**Q.** And the fluorescence quenching ([5]; quencher: free methionine)?
**A.** The fluorescence quenching was “quenched”.

**Q.** And the fluorescence quenching ([5]; quencher: imidazole)?
**A.** Its fluorescence quenching is “quenched”.

**Q.** And the fluorescence quenching ([5]; quencher: tryptophan, same conditions)?
**A.** The fluorescence quenching was “not by tyrosine or tryptophan”.

**Q.** What about the fluorescence quenching ([5]; quencher: tyrosine, same conditions) of the same molecule?
**A.** The fluorescence quenching was “not by tyrosine or tryptophan”.

**Q.** For “Melittin: Melittin has strong affinity for CaM”, which “affinity for CaM” value (CaM) is on record?
**A.** The value was “strong affinity for CaM”.

Reference: article PMC3547328 (Chemical communications (Cambridge, England), 2013)
